Values quoted from earlier work as cited in US9532968B1, “Fumarate compounds, pharmaceutical compositions thereof, and methods of use” (priority 2015, dated 2017).

aqueous solubility: poor
Structure (SMILES): COC(=O)/C=C/C(=O)OC [DMF, dimethylfumarate]
